In brackets after ≈: the same amount, converted by molar mass. *1 amine or outer side, *2 acyl side, *3 side chain or, on linkers, in order; H or OH if unused. Where a SMILES comes first, the peptide text is derived from it. Bridges are numbered along the chain shown (N, C = ends). [ ]: non-standard residue; d: D form. The star is where a group is joined. Phe(3,5-F2) = N[C@@H](Cc1cc(F)cc(F)c1)C(=O)O; NHPh(4-CF3) = FC(F)(F)c1ccc(N*)cc1; aThr = C[C@H](O)[C@H](N)C(=O)O; Pip = O=C(O)[C@@H]1CCCCN1; CO = O=C([*:1])[*:2]
Tests used:
[1] = molecular target: T1, Sa-ClpP (Staphylococcus aureus, UniProt Q2G036); assay: ClpP activation, EnzCheck Protease Assay with Bodipy-FL casein (second described method); type: biochemical, S. aureus; settings: read-out: ClpP Activation EC50 (converted)
T1 construct: made in house; host or cells: E. coli BL21 (DE3)
T1 sequence (Q2G036 whole entry): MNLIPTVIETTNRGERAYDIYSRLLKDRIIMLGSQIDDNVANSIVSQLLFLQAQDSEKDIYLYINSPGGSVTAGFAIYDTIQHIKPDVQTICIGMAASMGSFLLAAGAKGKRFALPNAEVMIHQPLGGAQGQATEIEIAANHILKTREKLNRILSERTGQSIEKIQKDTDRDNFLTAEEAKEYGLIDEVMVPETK
Procedure, shortened: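 Sa-ClpP (2 μM in master mix) with Bodipy-FL casein (2 μM in master mix) in Tris-HCl pH 8.0, 0.01% Triton X-100, compounds in 2% DMSO, triplicate. Fluorescence (ex 485/em 520 nm) followed 30 min; degradation slopes normalized to ADEP4 and DMSO controls, EC50 and % activation by four-parameter fit.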

[2] = Cytotoxicity assay, CellTiter-Glo cell viability; type: cell-based; settings: African green monkey; Vero cells, 72 hours; read-out: Cytotoxicity IC50
Procedure, shortened: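 Vero cells seeded overnight at 37 °C in DMEM with 10% FBS, then exposed to serial dilutions of compound for 72 h. Viability read by CellTiter-Glo luminescence; IC50 from duplicates, given as the range of two independent experiments.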

[3] = test system: S. pyogenes ATCC 700294; assay: Minimal inhibitory concentration, microbroth dilution; type: cell-based; settings: Streptococcus pyogenes, ATCC700294, read-out: Minimal Inhibitory Concentration S. pyogenes ATCC 700294
Procedure, shortened: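 Twofold serial dilutions in broth per CLSI M7-A7 microbroth dilution, incubated aerobically overnight at 37° C. MIC read visually as lowest concentration preventing bacterial growth.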

[4] = test system: B. subtilis ATCC 23857; assay: as above; type: cell-based; settings: Bacillus subtilis, ATCC23857, read-out: Minimal Inhibitory Concentration B. subtilis ATCC 23857
Procedure, shortened: (§1)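 Following CLSI M7-A7 microbroth dilution, twofold serial dilutions of compound (top final concentration 200 μM) were combined with an equal volume of broth inoculum at about 10^5 cfu/mL. Plates were incubated aerobically at 37 °C overnight, and the MIC was the lowest concentration preventing visible growth.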

[5] = test system: S. aureus ATCC 29213; assay: as above; type: cell-based; settings: Staphylococcus aureus, ATCC29213, read-out: Minimal Inhibitory Concentration S. aureus ATCC 29213
Procedure, shortened: as §1

Structure (SMILES) | EC50 [1] [nM] | IC50 at 72 h [2] [nM] | MIC [3] [µM] | MIC [4] [µM] | MIC [5] [µM]
C[C@@H]1C[C@H]2C(=O)OC[C@H](NC(=O)[C@H](Cc3ccccc3)NC(=O)Nc3ccccc3Cl)C(=O)N3CCC[C@H]3C(=O)N3CCCC[C@H]3C(=O)N[C@@H](C)C(=O)N2C1 [Compound 7, (S)-2-(3-(2-Chlorophenyl)Ureido)-N-((2R,6S,8aS,14aS,20S,23aS)-2,6-Dimethyl-5,8,14,19,23-Pentaoxooctadecahydro-1H,5H,14H,19H-Pyrido[2,1-I]Dipyrrolo[2,1-C:2′,1′-L][1]Oxa[4,7,10,13]Tetraazacyclohexadecin-20-Yl)-3-Phenylpropanamide] | 1600 | > 100000 | 3.13 (≈ 2.44 µg/mL) | 6.25 (≈ 4.86 µg/mL) | 12.5 (≈ 9.73 µg/mL)
Cc1ccc(NC(=O)N[C@@H](Cc2cc(F)cc(F)c2)C(=O)N[C@@H]2C(=O)N3CCC[C@H]3C(=O)N3CCCC[C@H]3C(=O)N[C@@H](C)C(=O)N3C[C@@H](C)C[C@H]3C(=O)O[C@H]2C)cc1 [Compound 18, (S)-3-(3,5-Difluorophenyl)-2-(3-(P-Tolyl)Ureido)-N-((2R,6S,8aS,14aS,20S,21S,23aS)-2,6,21-Trimethyl-5,8,14,19,23-Pentaoxooctadecahydro-1H,5H,14H,19H-Pyrido[2,1-I]Dipyrrolo[2,1-C:2′,1′-L][1]Oxa[4,7,10,13]Tetraazacyclohexadecin-20-Yl)Propanamide] | 320 | 26700 ± 3600 | < 0.1 | < 0.1 | 0.1 (≈ 0.0808 µg/mL)
C[C@@H]1C[C@H]2C(=O)OC[C@H](NC(=O)[C@H](Cc3ccccc3)NC(=O)Nc3ccc(Cl)cc3)C(=O)N3CCC[C@H]3C(=O)N3CCCC[C@H]3C(=O)N[C@@H](C)C(=O)N2C1 [Compound 3, (S)-2-(3-(4-Chlorophenyl)Ureido)-N-((2R,6S,8aS,14aS,20S,23aS)-2,6-Dimethyl-5,8,14,19,23-Pentaoxooctadecahydro-1H,5H,14H,19H-Pyrido[2,1-I]Dipyrrolo[2,1-C:2′,1′-L][1]Oxa[4,7,10,13]Tetraazacyclohexadecin-20-Yl)-3-Phenylpropanamide] | 1500 | 63000 ± 5800 | 0.39 (≈ 0.304 µg/mL) | 0.78 (≈ 0.607 µg/mL) | 1.56 (≈ 1.21 µg/mL)
C[C@@H]1C[C@H]2C(=O)OC[C@H](NC(=O)[C@H](Cc3ccccc3)NC(=O)Nc3ccc4c(c3)CCN4C)C(=O)N3CCC[C@H]3C(=O)N3CCCC[C@H]3C(=O)N[C@@H](C)C(=O)N2C1 [Compound 11, (S)—N-((2R,6S,8aS,14aS,20S,23aS)-2,6-Dimethyl-5,8,14,19,23-Pentaoxooctadecahydro-1H,5H,14H,19H-Pyrido[2,1-I]Dipyrrolo[2,1-C:2′,1′-L][1]Oxa[4,7,10,13]Tetraazacyclohexadecin-20-Yl)-2-(3-(1-Methylindolin-5-Yl)Ureido)-3-Phenylpropanamide] | 1100 | 76000 ± 10600 | 0.6 (≈ 0.479 µg/mL) | 1.25 (≈ 0.999 µg/mL) | 2.5 (≈ 2 µg/mL)
C[C@@H]1NC(=O)[C@@H]2CCCCN2C(=O)[C@@H]2CCCN2C(=O)[C@@H](NC(=O)[C@H](Cc2cc(F)cc(F)c2)NC(=O)Nc2ccc(C(F)(F)F)cc2)[C@H](C)OC(=O)[C@@H]2CCCN2C1=O [Compound 16, (S)-3-(3,5-Difluorophenyl)-N-((6S,8aS,14aS,20S,21 S,23aS)-6,21-Dimethyl-5,8,14,19,23-Pentaoxooctadecahydro-1H,5H,14H,19H-Pyrido[2,1-I]Dipyrrolo[2,1-C:2′,1′-L][1]Oxa[4,7,10,13]Tetraazacyclohexadecin-20-Yl)-2-(3-(4-(Trifluoromethyl)Phenyl)Ureido)Propanamide] ({NHPh(4-CF3)-CO}-[Phe(3,5-F2)][aThr]P[Pip]AP; ester 2-C) | 550 | 74300 ± 9000 | 1.5 (≈ 1.27 µg/mL) | 0.4 (≈ 0.339 µg/mL) | 0.4 (≈ 0.339 µg/mL)
Cc1ccc(NC(=O)N[C@@H](Cc2cc(F)cc(F)c2)C(=O)N[C@@H]2C(=O)N3CCC[C@H]3C(=O)N3CCCC[C@H]3C(=O)N[C@@H](C)C(=O)N3CCC[C@H]3C(=O)O[C@H]2C)cc1 [Compound 15, (S)-3-(3,5-Difluorophenyl)-N-((6S,8aS,14aS,20S,21 S,23aS)-6,21-Dimethyl-5,8,14,19,23-Pentaoxooctadecahydro-1H,5H,14H,19H-Pyrido[2,1-I]Dipyrrolo[2,1-C:2′,1′-L][1]Oxa[4,7,10,13]Tetraazacyclohexadecin-20-Yl)-2-(3-(P-Tolyl)Ureido)Propanamide] | 700 | 39700 ± 6600 | 0.6 (≈ 0.476 µg/mL) | < 0.1 | 0.6 (≈ 0.476 µg/mL)
COc1ccc(NC(=O)N[C@@H](Cc2ccccc2)C(=O)N[C@H]2COC(=O)[C@@H]3C[C@@H](C)CN3C(=O)[C@H](C)NC(=O)[C@@H]3CCCCN3C(=O)[C@@H]3CCCN3C2=O)cc1 [Compound 6, (S)—N-((2R,6S,8aS,14aS,20S,23aS)-2,6-Dimethyl-5,8,14,19,23-Pentaoxooctadecahydro-1H,5H,14H,19H-Pyrido[2,1-1]Dipyrrolo[2,1-C:2′,1′-L][1]Oxa[4,7,10,13]Tetraazacyclohexadecin-20-Yl)-2-(3-(4-Methoxyphenyl)Ureido)-3-Phenylpropanamide] | 800 | > 100000 | 0.39 (≈ 0.302 µg/mL) | 1.56 (≈ 1.21 µg/mL) | 3.13 (≈ 2.42 µg/mL)
C[C@H]1C[C@H]2C(=O)O[C@@H](C)[C@H](NC(=O)[C@H](Cc3cc(F)cc(F)c3)NC(=O)Nc3ccc(C(F)(F)F)cc3)C(=O)N3CCC[C@H]3C(=O)N3CCCC[C@H]3C(=O)N[C@@H](C)C(=O)N2C1 [Compound 19, (S)-3-(3,5-Difluorophenyl)-2-(3-(4-(Trifluoromethyl)Phenyl)Ureido)-N-((2R,6S,8aS,14aS,20S,21S,23aS)-2,6,21-Trimethyl-5,8,14,19,23-Pentaoxooctadecahydro-1H,5H,14H,19H-Pyrido[2,1-I]Dipyrrolo[2,1-C:2′,1′-L][1]Oxa[4,7,10,13]Tetraazacyclohexadecin-20-Yl)Propanamide] | 330 | 36800 ± 4100 | 0.4 (≈ 0.345 µg/mL) | < 0.1 | 0.1 (≈ 0.0862 µg/mL)
C[C@@H]1C[C@H]2C(=O)OC[C@H](NC(=O)[C@H](Cc3ccccc3)NC(=O)Nc3cccc(Cl)c3)C(=O)N3CCC[C@H]3C(=O)N3CCCC[C@H]3C(=O)N[C@@H](C)C(=O)N2C1 [Compound 9, (S)-2-(3-(3-Chlorophenyl)Ureido)-N-((2R,6S,8aS,14aS,20S,23aS)-2,6-Dimethyl-5,8,14,19,23-Pentaoxooctadecahydro-1H,5H,14H,19H-Pyrido[2,1-I]Dipyrrolo[2,1-C:2′,1′-L][1]Oxa[4,7,10,13]Tetraazacyclohexadecin-20-Yl)-3-Phenylpropanamide] | 1100 | 89000 ± 5000 | 1.56 (≈ 1.21 µg/mL) | 1.56 (≈ 1.21 µg/mL) | 3.13 (≈ 2.44 µg/mL)

Reference: US9879050B2, “Substituted urea depsipeptide analogs as activators of the CLPP endopeptidase” (priority 2013, dated 2018)
